Source: patent publication US6426368B2, “Method for preventing and treating alcoholism” (Warner-Lambert Company, priority 1997, dated 2002)

Legend:
Format in all cases: in vivo, rat
[1] = test system: lipopolysaccharide-induced delayed rectal allodynia; assay: LPS-colonic hypersensitivity assay (LPS-induced delayed rectal allodynia); conditions: 30 mg/kg 30 minutes prior to rectal distension; 12 hours after LPS 1 mg/kg IP; volume 0.4 mL; LPS alone 9.7±1.0, before LPS 3.7±1.0
Description: The GABA analogs also have been evaluated for their ability to control and treat gastrointestinal disorders characterized as IBD and IBS. The assay utilized to evaluate the GABA analogs measures the effects of compound on lipopolysaccharide-induced delayed rectal allodynia in rats. Intraperitoneal (IP) injections of the endotoxin lipopolysaccharide (LPS) are known to induce long-lasting hyperalgesia in somatic pain models. The following assay LPS-colonic hypersensitivity assay was designed to evaluate the effect of IP injections of LPS on pain visceral threshold in an experimental model of rectal distension.
Male Wistar rats weighing 250 to 350 g were surgically prepared for electromyography, according to a standard technique. […]
Electromyographic recording began 5 days after surgery. The electrical activity of abdominal striated muscles was recorded with an electroencephalograph machine (Mini VIII, Alvar, Paris, France) using a short-time constant (0.03 sec) to remove low-frequency signals (<3 Hz) and a paper speed of 3.6 cm/minute. […]
(§1) Statistical analysis of the number of abdominal contractions occurring during each 5-minute period during RD was performed by one-way ANOVA followed by Student's paired t-test. Values were expressed as the mean±SEM, and differences were considered significant for p<0.05.

colonic pain threshold = assay: Colonic pain threshold in normal rats (colonic distension); conditions: control animals
Protocol: (§2) Male Sprague-Dawley rats weighing 340 to 400 g were used in the study. The animals were housed three per cage in a regulated environment (20±1° C., 50±5% humidity, with light 8:00 AM to 8:00 PM). Under anethesia (ketamine 80 mg/kg i.p.; acepromazin 12 mg/kg i.p.), TNBS (50 mg/kg), or saline (1.5 mL/kg) was injected into the proximal colon (1 cm from the cecum). After the surgery, animals were individually housed in the regulated environment.
(§3) A balloon catheter (5-6 cm length) was inserted through the anus into the colon and kept in position (tip of balloon 5 cm from the anus) by taping the catheter to the base of the tail. The balloon was progressively inflated by step of 5 mm Hg, from 0 to 75 mm Hg, each step of inflation lasting 30 seconds. Each cycle of colonic distension was controlled by a standard barostat. The threshold corresponds to the pressure which produced the first abdominal contraction, at which time the cycle of distension was discontinued. To determine the colonic threshold, four cycles of distension were performed on the same animal.

[2] = test system: cyclooxygenase product prostaglandin E2 (PGE2); assay: PGE2 content of gastric mucosa biopsies (ELISA) after indomethacin (Example 3); conditions: any dose tested (1-200 mg/kg oral)
Protocol: Gabapentin or pregabalin (CI-1008) were dissolved in water and administered orally at the following doses: 1, 10, 100, and 200 mg/kg in a volume of 1 mL. Control animals were dosed with an equal volume of vehicle (1 mL of water). Sixty minutes later, all the animals received 1 mL of a solution of indomethacin dissolved in 5% aqueous NaHCO3 (80 mg/kg). Control animals received 1 mL of 5% aqueous NaHCO3 orally. Experimental groups were as follows:
Gastric damage caused by indomethacin correlates with inhibition of the cyclooxygenase product prostaglandin E2 (PGE2). Animals were sacrificed by decapitation 4 hours post-indomethacin administration. The stomach was removed and opened along the greater curvature and its image digitized and stored on an optical disk using a 486-based PC computer equipped with CUE3 system imaging analysis software (Olympus Corp., Marietta, Ga., USA). Two 6-mm biopsies were taken from a constant region of the gastric mucosa located in each side of the glandular portion of the stomach, and their PGE2 content was measured using a commercially available ELISA kit (Assay Designs Inc., Ann Arbor, Mich., USA). The presence of gastric damage was determined using the retrieved electronic image, and the extent of damage was measured using the CUE3 imaging software. Data are expressed as a percent of gastric area damaged and the PGE2 content (pg/mL).

[3] = test system: colonic inflammatory effect of TNBS; assay: Colonic inflammatory parameters after TNBS in rats; conditions: gabapentin 100-500 mg/kg sc, CI-1008 30-200 mg/kg sc; Day 7 after TNBS
Protocol: (§4) Pain threshold (pressure of distension inducing the first abdominal contraction) after distal colonic distension was determined at Day 7 in two groups of awake rats: control animals and TNBS-treated animals. […] Inflammatory parameters (colon weight, area of hyperemia and necrosis and colonic myeloperoxidase content) were measured in the proximal colon at Day 7 after TNBS treatment.
Gabapentin (100, 300, and 500 mg/kg sc) and CI-1008 (30, 60, 100, and 200 mg/kg sc) were administered 30 minutes before colonic distension and measurement of the inflammatory parameters.

[4] = test system: TNBS-induced colonic allodynia; assay: TNBS-induced chronic colonic allodynia in rats, colonic distension threshold; conditions: for Colonic Threshold: TNBS rats
Protocol: GABA analogs were evaluated in rats suffering from chronic visceral allodynia induced by trinitrobenzene sulfonic acid (TNBS). […] In humans, digestive disorders are often associated with visceral pain. In these pathologies, the visceral pain threshold is decreased, indicating a visceral hypersensitivity. Consequently, the following study was designed to evaluate the effect of injection of TNBS into the colon on visceral pain threshold in an experimental model of colonic distension.
as §2, §3
In a third series, a group of eight rats treated with TNBS received a subcutaneous (sc) injection of gabapentin or CI-1008 30 minutes prior to initiation of the colonic distension cycle.
All test compounds were dissolved in saline except TNBS. TNBS was dissolved in EtOH 30% (w/v). Subcutaneous injection of vehicle was given in a volume of […].
Statistical significance between each group was determined using a one-way ANOVA followed by Student's unpaired t-test. Differences were considered statistically significant at p<0.05.
as §4

[5] = test system: intracolonic formalin-induced pain; assay: Formalin-induced inflammatory colonic pain in rats; conditions: gabapentin 100, 300, 500 mg/kg sc; CI-1008 100, 200 mg/kg sc
Protocol: Administration of formalin into the wall of the rat colon causes acute inflammation and visceral pain. The aim of this study was to evaluate the antinociceptive activity of gabapentin and CI-1008 in visceral pain induced by colonic intrapariental injection of formalin.
Adult female Sprague-Dawley rats weighing 240 to 260 g were used in the study. The animals were housed three per cage in a regulated environment (20±1° C., 50±5% humidity, with light 8:00 AM to 8:00 PM) prior to use in the test.
Each test animal was placed in a transparent plastic cage (27×43×28 cm) with a layer of wood shavings on the floor. Drinking water was available. […] The injection site and the zone of diffusion of Evans Blue were recorded by image analysis software. […]
As listed in increasing order of pain intensity, these behaviors were: (i) abdominal licking and nibbling (L), (ii) body stretching, i.e., backward extension of the hind limbs (B), (iii) contraction of the flanks, sometimes evolving to a stretching attitude (C), and (iv) whole body contraction, the rat standing with its back curved, occasionally further graded according to the duration of the given episode: W1 for less than 30 seconds, W2 between 30 seconds and 1 minute, and W3 for more than 1 minute. Behaviors were recorded for each animal throughout the 2-hour test on individual charts. […]

[6] = test system: rectal distension-induced abdominal contractions; assay: Abdominal response induced by rectal distension in rats (basal)
Protocol: Male Wistar rats weighing 250 to 350 g were surgically prepared for electromyography, according to a standard technique. Rats were anesthetized by i.p. injection of acepromazine and ketamine (Imalgene 1000, Rhöne-Mérieux, Lyon, France) at doses of 0.6 and 120 mg/kg, respectively. […] Electrodes were exteriorized on the back of the neck and protected by a glass tube attached to the skin. Animals were individually housed in polypropylene cages and kept in a temperature-controlled room (21° C.). They were allowed free access to water and food (UAR pellets, Epinay, France).
Electromyographic recording began 5 days after surgery. The electrical activity of abdominal striated muscles was recorded with an electroencephalograph machine (Mini VIII, Alvar, Paris, France) using a short-time constant (0.03 sec) to remove low-frequency signals (<3 Hz) and a paper speed of 3.6 cm/minute.
Rats were placed in plastic tunnels (6 cm diameter; 25 cm length) where they could not move, escape or turn around, in order to prevent damage to the balloon. They are accustomized to this procedure for 3 or 4 days before rectal distension (RD) in order to minimize stress reaction during experiments. […] The balloon used for distension was an arterial embolectomy catheter (Fogarty, Edwards Laboratories, Inc., Santa Ana, USA). Rectal distension (RD) was performed by insertion of the balloon (2-mm diameter; 2-cm long) in the rectum, at 1 cm of the anus, the catheter being fixed at the tail. It was inflated progressively by steps of 0.4 mL, from 0 to 1.6 mL, each step of inflation lasting 5 minutes. To detect possible leakage, the volume of water introduced in the balloon was checked by complete removal with a syringe at the end of the distension period. […]
as §1

| SMILES | number of abdominal contractions [1] | colonic pain threshold in normal conditions (colonic pain threshold; 200 mg/kg sc) | modification of indomethacin inhibition of PGE2 [2] | colonic inflammatory effect of TNBS (colon weight, hyperemia, necrosis, myeloperoxidase) [3] | Colonic Threshold ([4]; 30 mg/kg sc 30 min before distension, TNBS 17.81, Sham 33.44, Control 43.39) | Colonic Threshold ([4]; 60 mg/kg sc, TNBS 17.81, Control 43.39) | allodynia induced by TNBS ([4]; 100 mg/kg sc) | inhibition of TNBS-induced colonic allodynia / decrease in pain threshold (dose relation) ([4]; gabapentin 100, 300, 500 mg/kg sc, CI-1008 30, 60, 100, 200 mg/kg sc, 30 minutes before colonic distension) | pain score induced by intracolonic formalin [5] | number of cramps on rectal distension ([6]; 10 mg/kg injected 120 minutes before rectal distension, all distension volumes) | number of cramps on rectal distension ([6]; 30 mg/kg injected 120 minutes before rectal distension, all distension volumes) | number of cramps on rectal distension ([6]; 30 mg/kg, distension volumes of 0.4 and 0.8 mL) | colonic pain threshold in normal conditions (colonic pain threshold; 0.3 mg/kg sc) | TNBS-induced decrease in pain threshold after colonic distension ([4]; 0.1 mg/kg sc) |
| --- | --- | --- | --- | --- | --- | --- | --- | --- | --- | --- | --- | --- | --- | --- |
| CC(C)C[C@H](CN)CC(=O)O [CI-1008, (S)-3-(aminomethyl)-5-methylhexanoic acid] | 1.8±0.9 | neither gabapentin (500 mg/kg sc) nor CI-1008 (200 mg/kg sc) modified the colonic pain threshold | Neither gabapentin nor CI-1008, at any dose tested, were able to significantly modify this effect | neither gabapentin nor CI-1008 inhibited the colonic inflammatory effect of TNBS | 21.72 mm Hg | 25.47 mm Hg | completely suppressed | dose-related inhibition | significantly and dose-dependently decreased the pain score | had a similar effect at all distension volumes | had a similar effect at all distension volumes | reduced the number of cramps |  |  |
| CN1CC[C@]23c4c5ccc(O)c4O[C@H]2[C@@H](O)C=C[C@H]3[C@H]1C5 [Morphine] |  |  |  |  |  |  |  |  |  |  |  |  | significantly increased the colonic pain threshold | completely suppressed |
